Patent US20250008959A1, “HERBICIDES AND USE THEREOF” (Projini Agchem LTD, priority 2021, published 2025)

Columns and labels:
[1] = target: T1, OASS-SAT complex (AtOASS with SAT-derived peptide) (Arabidopsis thaliana, UniProt P47998); experiment: Fluorescence polarization (FP) competition with FITC-labeled SAT-derived peptide bound to OASS; format: binding; conditions: competition with FITC-SAT peptide 200 nM, OASS 2.2 μM; for IC50: single site inhibition model
T1 construct: GST (N, cleaved yes); made in house; host or cells: E. coli Rosetta (DE3)
Description: Molecules were also tested for their ability to compete with the OASS binding to the SAT-derived peptide via a fluorescence polarization (FP) competition assay wherein the N-terminus labeled peptide was incubated with the AtOASS (see Examples section below). High FP values correspond to the peptide-bound state (low molecule concentrations) and low FP values correspond to the peptide-free state (low FP values). To extract the IC50, the FP data were fitted to a single site inhibition model in PRISM by GraphPad Software. The corresponding IC50 values were extracted, whereas low IC50 values correspond to molecule that better competes with the peptide binding to AtOASS. Fluorescence polarization (FP) measurements were made on samples arrayed in 96-well plates by using BioTek H1 Synergy instrument equipped with FP module. […] The peptide in a concentration of 200 nM was incubated with OASS at a concentration of 2.2 μM in each well. Variable concentrations of each molecule starting from 100 μM down to 0.048 μM were added to evaluate the ability of each molecule to compete off the FITC labeled peptide bound to OASS. Fluorescence experiments were executed with an Em/Exc wavelengths of 480/520 nm. All measurements were done in triplicate. Experimental polarization data from simple and competitive binding experiments were fitted using GraphPad Prism, with error bars representing SD. Molecules were also tested for their ability to compete with the OASS binding to the SAT-derived peptide via a fluorescence polarization (FP) competition assay. The N-terminus labeled peptide was incubated with the AtOASS in each of the wells in a 96-well plate. Various concentrations of the molecules were added and the FP values were recorded. High FP values correspond to the peptide-bound state (low molecule concentrations) and low FP values correspond to the peptide-free state (low FP values). To extract the IC50, the FP data were fitted to a single site inhibition model in graphpad prism. The corresponding IC50 values were extracted. Low IC50 values correspond to molecule that better competes with the peptide binding to AtOASS.

[2] = target: T2, AtOASS (O-acetyl serine sulfhydrylase from Arabidopsis thaliana) (Arabidopsis thaliana, UniProt P47998); experiment: Isothermal titration calorimetry (ITC) binding to OASS; conditions: for Kd: OASS titrated into compound in ITC cell, single binding model
T2 construct: GST (N, cleaved yes); made in house; host or cells: E. coli Rosetta (DE3)
Description: To evaluate the ability of the molecules to bind AtOASS (O-acetyl serine sulfhydrylase from Arabidopsis thaliana), the protein was placed in the ITC syringe and was titrated with the molecules that were placed in the ITC cell (see Examples section below). The direct dissociation binding constant (Kd) was then extracted from the binding curve using a single binding model, wherein a low Kd value corresponds to a stronger binding affinity.
To evaluate the binding of the small molecules to the enzyme OASS, the purified protein was placed in a 6-8 MWCO dialysis bag in 30 mM phosphate buffer, 30 mM NaCl, 1 mM TCEP, and 5% dimethyl sulfoxide. Sequential buffer exchange dialyses were executed for 12 hours each at 4° C. until dilution of >10,000 was achieved. Before the execution of the ITC binding experiment, the OASS was placed in the ITC syringe at a concentration of 400 μM and each of the small molecules was dissolved in the same dialysis buffer to a final concentration of 40 μM in the ITC cell. ITC experiments were conducted by titrating the OASS to the compounds in the cell. The ITC binding constant was evaluated using the build-in analysis software.
The designed de-novo herbicidal compounds were synthesized and evaluated for their in vitro and in planta activity. After dissolving the molecules to a stock of 50 mM in DMSO, binding and competition with the SAT-derived peptides were evaluated using ITC and FP. ITC measures the direct heat change occurring due to the interaction of a pair of molecules. ITC has certain advantages, such as the capability to detect a relatively broad range of binding affinities, being a label-free method, and providing a wide set of interaction parameters, such as affinity, stoichiometry, enthalpy, and entropy of binding. To evaluate the ability of the molecules to bind AtOASS, the protein was placed in the ITC syringe and was titrated with the molecules that were placed in the ITC cell. The direct dissociation binding constant (Kd) was then extracted from the binding curve using a single binding model. Two consecutive experiments were combined using the built in ITC module to enable better quantification. A low Kd value corresponds to a stronger binding affinity.

[3] = tested on: Arabidopsis thaliana; experiment: Root elongation in plates (in planta root elongation assay); format: in vivo; conditions: 168 h, A. thaliana on MS medium plates, 7 days, read-out: Root-growth inhibition %
Description: 6-well plates were prepared in a biological hood with sterile half Murashige and Skoog mineral medium (MS; Duchefa, Haarlem, Netherlands) containing 1% sucrose (w/v), pH 5.8. Tested molecules were dissolved in 50 mM DMSO and diluted to various concentrations 1,000-fold greater than the final desired concentration the MS medium maintaining a final concentration of 0.1% DMSO. MS medium with 0.1% DMSO was used as a negative control. After 7 days the plates were scanned and the root length was calculated using the imageJ software. […] Further sterilization was done by washing the seeds with 50% hypochlorite and 0.2% Triton x-100 for 10 minutes followed by five cycles of washing with sterile water. Six seeds were placed in each well, and the plates were covered and sealed with parafilm. Plates were placed vertically at 4° C. for two days and then transferred to a growth chamber for seven days (22-24° C.) at day/light cycles of 16/8 hours. Following the in vitro evaluation, selected molecules were tested for their ability to inhibit A. thaliana root elongation on agar plates. Seeds were plated on medium containing the molecules dissolved in the indicated concentrations and root length was measured after 6 or 7 days when the root in the non-treated plate reached the end of the well.

T2 sequence (P47998 whole entry): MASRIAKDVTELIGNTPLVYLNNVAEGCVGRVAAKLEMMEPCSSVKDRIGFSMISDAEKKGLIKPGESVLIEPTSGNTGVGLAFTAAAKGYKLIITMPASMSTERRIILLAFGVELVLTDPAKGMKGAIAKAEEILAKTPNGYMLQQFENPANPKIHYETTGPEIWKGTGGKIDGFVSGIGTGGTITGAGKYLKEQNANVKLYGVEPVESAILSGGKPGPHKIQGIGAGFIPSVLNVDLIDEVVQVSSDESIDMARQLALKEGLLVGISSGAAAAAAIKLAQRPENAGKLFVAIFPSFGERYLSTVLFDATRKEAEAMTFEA
T1 sequence (P47998 whole entry, one chain of several): as the sequence (P47998 whole entry) above

| SMILES | FP % inhibition [1] [%] | Kd [2] [µM] | inhibition at 50 µM [3] [%] | IC50 [1] [µM] | direct binding to AtOASS by ITC (in vitro screening of purchased virtual hits) ([2]; result in words) |
| --- | --- | --- | --- | --- | --- |
| O=C(O)c1cc2c(c(S(=O)(=O)Nc3cccc(-n4cccn4)c3)c1)CCC2 [PJL-76] | 16 | 18.3 | 0 | – | – |
| NCCc1ccc(-c2csc(NC(=O)c3ccccc3-c3ccccc3C(=O)O)n2)cc1 [PJL-107] | 41 | 0.32 | 29 | 1.9 | – |
| O=C(O)c1cccc(NC2=C(Cl)C(=O)N(c3ccc(Cl)c(Cl)c3)C2=O)c1 [PJL-103] | 21 | 9.37 | 0 | 73 | – |
| Cc1ccnn1-c1cccc(NS(=O)(=O)c2cc(C(=O)O)cc3c2CCC3)c1 [PJL-43] | 17 | 9.9 | 6 | 87 | – |
| COc1ccc(NC(=O)c2ccc(NS(=O)(=O)c3cc(C(=O)O)ccc3OC)cc2)cc1 [PJS-31] | 11 | 5.6 | 0 | 225 | – |
| O=C(O)c1ccccc1-c1ccccc1C(=O)Nc1cccc(NNc2nccs2)c1 [PJL-68] | 32 | 3.4 | 0 | 10 | – |
| O=C(O)c1cc2c(c(S(=O)(=O)Nc3cccc(NC(=O)C4CC4)c3)c1)CCC2 [PJL-39] | 12 | 10.1 | 18 | 127 | – |
| CC(C)(C)NC(=O)c1ccc(NC(=O)c2ccccc2-c2ccccc2C(=O)O)cc1 [PJL-67] | 30 | 2.38 | 9 | 20.9 | – |
| O=C(Nc1nccs1)c1cccc(NC(=O)c2ccccc2-c2ccccc2C(=O)O)c1 [PJL-62] | 31 | 2 | 0 | 6.7 | – |
| O=C(O)c1cc2c(c(S(=O)(=O)Nc3cccc(-c4n[nH]c(C5CC5)n4)c3)c1)CCC2 [PJL-71] | 24 | 6.11 | 17 | 21 | – |
| COc1ccc(C(=O)O)c(-c2ccccc2C(=O)Nc2nc(-c3ccc(Cl)cc3Cl)cs2)c1 [PJL-118] | 43 | 2.3 | 47 | 5.99 | – |
| O=C(O)c1ccccc1-c1ccccc1C(=O)Nc1cccc(C(F)(F)F)c1 [PJS-212] | 34 | 8.11 | 34 | 10.6 | – |
| O=C(O)c1cc(F)ccc1NS(=O)(=O)c1cnn(-c2cccc(C(F)(F)F)c2)c1 [PJL-84] | 24 | 10.9 | 47 | 44 | – |
| Cc1cc(-c2cc(NC(=O)c3ccccc3-c3ccccc3C(=O)O)[nH]n2)ccc1OCCN1CCOCC1 [PJL-106] | 45 | 0.94 | 0 | 1.9 | – |
| O=C(O)c1cc(F)ccc1NS(=O)(=O)c1cnc(-c2ccc(F)cc2)s1 [PJL-41] | 19 | 4.8 | 85 | 34 | showed direct binding to AtOASS by ITC |
| COc1ccc(-c2csc(NC(=O)c3ncccc3-c3ccccc3C(=O)O)n2)cc1 [PJL-127] | 38 | 7.6 | 100 | 15.3 | – |
| COc1ccc(C(=O)O)cc1S(=O)(=O)Nc1ccc(NC(=O)CC(C)C)cc1 [PJL-30] | 11 | 6.6 | 0 | 300 | – |
| O=C(Cc1ccccc1C(=O)O)Nc1cccc(C(=O)Nc2nccs2)c1 [PJL-93] | 21 | 5.3 | 0 | – | – |
| CCc1nnc(NC(=O)c2ccccc2-c2ccccc2C(=O)O)s1 [PJL-66] | 17 | 8.6 | 0 | 30.8 | – |
| O=C(O)c1cc2c(c(S(=O)(=O)Nc3cc(Cl)c(Cl)c(C(=O)O)c3)c1)CCC2 [PJL-29] | 13 | 3.5 | 11 | 132 | – |
